# Assay results as given in ChEMBL document CHEMBL6109037, “Understanding the mechanisms of antimicrobial resistance and potential therapeutic approaches against the Gram-negative pathogen Acinetobacter baumannii” (RSC Med Chem, 2024).
# Tests used:
# Acinetobacter baumannii [1] = experiment: Synergistic antibacterial activity against Acinetobacter baumannii assessed as inhibition of bacterial growth incubated for 18 to 24 hrs by Checkerboard assay relative to control; assay type: functional; parameters: scale not given: the % may be the effect or the level left; settings: time 18-24 hrs
# Klebsiella pneumoniae = experiment: Antibacterial activity against Klebsiella pneumoniae; assay type: functional
# Acinetobacter baumannii [2] = experiment: Antibacterial activity against Acinetobacter baumannii; assay type: functional
# Escherichia coli = experiment: Antibacterial activity against Escherichia coli; assay type: functional
# Acinetobacter baumannii [3] = experiment: Antibacterial activity against Acinetobacter baumannii AB-5075 assessed as reduction in bacterial growth incubated for 18 to 24 hrs by broth micro-dilution assay; assay type: functional, organism-based
# Acinetobacter baumannii [4] = experiment: Antibacterial activity against Acinetobacter baumannii ATCC 17978 assessed as reduction in microbial growth incubated for 24 hrs Mueller-Hintorn broth dilution method; assay type: functional, organism-based; settings: ATCC 17978, 24 h
# Acinetobacter baumannii [5] = experiment: Antibacterial activity against multidrug-resistant Acinetobacter baumannii ATCC 17978 assessed as reduction in bacterial growth incubated for 24 hrs by micro-broth dilution method; assay type: functional
# Acinetobacter baumannii [6] = experiment: Antibacterial activity against Acinetobacter baumannii ATCC 17978 assessed as reduction in bacterial growth incubated for 24 hrs by micro-broth dilution method; assay type: functional
# Acinetobacter baumannii [7] = experiment: Antibacterial activity against Acinetobacter baumannii ATCC 17978 assessed as bacterial eradication; assay type: functional
# Acinetobacter baumannii [8] = experiment: Antibacterial activity against Acinetobacter baumannii ATCC 17978 assessed as inhibition of bacterial growth incubated for 18 to 20 hrs by two fold serial dilution assay; assay type: functional; settings: time 18-20 hrs
# Acinetobacter baumannii [9] = experiment: Antibacterial activity against Acinetobacter baumannii BAA-1605 assessed as reduction in microbial growth incubated for 24 hrs by broth micro-dilution method; assay type: functional
# DNA gyrase = DNA gyrase (Escherichia coli, UniProt P0AES4+P0AES6); experiment: Inhibition of Escherichia coli DNA gyrase; assay type: protein-complex assay
# Staphylococcus aureus [10] = experiment: Antibacterial activity against Staphylococcus aureus; assay type: functional
# Acinetobacter baumannii [11] = experiment: Antibacterial activity against multidrug-resistant Acinetobacter baumannii assessed as inhibition of bacterial growth incubated for 24 hrs by broth dilution assay; assay type: functional
# Acinetobacter baumannii [12] = experiment: Antibacterial activity against Acinetobacter baumannii ATCC 17978 assessed as reduction in bacterial growth incubated for 24 hrs by broth dilution assay; assay type: functional
# Acinetobacter baumannii [13] = experiment: Bactericidal activity against Acinetobacter baumannii; assay type: functional
# Acinetobacter baumannii [14] = experiment: Antibacterial activity against Acinetobacter baumannii assessed as zone of inhibition; assay type: functional
# Acinetobacter baumannii [15] = experiment: Synergistic antibacterial activity against Acinetobacter baumannii clinical isolates assessed as inhibition of bacterial growth incubated for 18 to 24 hrs by Checkerboard assay relative to control; assay type: functional; parameters: scale not given: the % may be the effect or the level left; settings: time 18-24 hrs
# Acinetobacter baumannii [16] = experiment: Antibacterial activity against Acinetobacter baumannii ATCC 17978 assessed as reduction in microbial growth; assay type: functional
# Staphylococcus aureus [17] = experiment: Antibacterial activity against Staphylococcus aureus assessed as reduction in microbial growth; assay type: functional
compound,measurement,setting,value
CC1(C)[C@H](C(=O)O)N2C(=O)C[C@H]2S1(=O)=O [SULBACTAM],Activity,Acinetobacter baumannii [1],~70%
Cc1c(CN(C)C(=O)/C=C/c2cnc3c(c2)CC(N)C(=O)N3)oc2ccccc12 (configuration not stated),MIC,Klebsiella pneumoniae,4 mg/L
same,MIC,Acinetobacter baumannii [2],4 mg/L
same,MIC,Escherichia coli,4 mg/L
O=C(O)c1ccc(-n2cc(/C=N/Nc3ccc(Cl)cc3)c(-c3ccccc3)n2)cc1,MIC,Acinetobacter baumannii [2],4 mg/L
Cc1c(CN(C)C(=O)/C=C/c2cnc3c(c2)CCC(=O)N3)oc2ccccc12 [AFN-1252],MIC,Escherichia coli,> 32 mg/L
CN(C)[C@@H]1C(O)=C(C(N)=O)C(=O)[C@@]2(O)C(O)=C3C(=O)c4c(O)cccc4[C@@](C)(O)[C@H]3C[C@@H]12 [TETRACYCLINE],IC50,Acinetobacter baumannii [3],0.04 µM
O=c1[nH]c(=O)n(C2OC(CO)c3ccccc32)cc1F (configuration not stated),IC50,Acinetobacter baumannii [4],< 2 µM
CSc1ccc2c(c1)N(CCC1CCCCN1C)c1ccccc1S2 (configuration not stated) [THIORIDAZINE],MIC,Acinetobacter baumannii [5],100 mg/L
same,MIC,Acinetobacter baumannii [6],100 mg/L
same,MBEC,Acinetobacter baumannii [7],0.3 g/L
Brc1ccc2[nH]c(-c3ccncc3)cc2c1,MIC,Acinetobacter baumannii [8],< 2 mg/L
CO[C@@]12[C@H](COC(N)=O)C3=C(C(=O)C(C)=C(N)C3=O)N1C[C@@H]1N[C@@H]12 [MITOMYCIN],MIC,Acinetobacter baumannii [9],≤ 8 mg/L
C[C@@H](O)[C@H]1C(=O)N2C(C(=O)O)=C(SCCNC=N)C[C@H]12 [IMIPENEM ANHYDROUS],MIC,Acinetobacter baumannii [2],> 8 mg/L
CC[C@H]1OC(=O)[C@H](C)[C@@H](O[C@H]2C[C@@](C)(OC)[C@@H](O)[C@H](C)O2)[C@H](C)[C@@H](O[C@@H]2O[C@H](C)C[C@H](N(C)C)[C@H]2O)[C@](C)(O)C[C@@H](C)CN(C)[C@H](C)[C@@H](O)[C@]1(C)O [AZITHROMYCIN],IC50,Acinetobacter baumannii [3],1.1 µM
Cc1[nH]c(C(=O)Nc2nc3cc(NCc4ccccc4)c(C(=O)O)cc3s2)c(Cl)c1Cl,IC50,DNA gyrase,< 0.071 µM
same,MIC,Acinetobacter baumannii [2],8 mg/L
C[C@@H](O)[C@H]1C(=O)N2C(C(=O)O)=C(S[C@@H]3CN[C@H](C(=O)N(C)C)C3)[C@H](C)[C@H]12 [MEROPENEM],MIC,Acinetobacter baumannii [2],> 8 mg/L
NNC(=O)CSc1ccc([N+](=O)[O-])cc1Cl,IC50,Acinetobacter baumannii [4],11.7 µM
CN(C)CCCN1c2ccccc2Sc2ccc(Cl)cc21 [CHLORPROMAZINE],MIC,Acinetobacter baumannii [5],100 mg/L
same,MIC,Acinetobacter baumannii [6],100 mg/L
same,MBEC,Acinetobacter baumannii [7],0.3 g/L
CC(CN1c2ccccc2Sc2ccccc21)N(C)C (configuration not stated) [PROMETHAZINE],MIC,Acinetobacter baumannii [5],100 mg/L
same,MIC,Acinetobacter baumannii [6],100 mg/L
same,MBEC,Acinetobacter baumannii [7],0.3 g/L
Cc1cc(=O)n(C)c2c3c4c(cc12)c(C)cc(=O)n4C(CN)CO3 (configuration not stated),MIC,Staphylococcus aureus [10],0.03 mg/L
same,MIC,Acinetobacter baumannii [2],2 mg/L
same,MIC,Escherichia coli,0.5 mg/L
THIMEROSAL,MIC,Acinetobacter baumannii [11],1 mg/L
Cc1cc(=O)n(C)c2c3c4c(cc12)c(C)cc(=O)n4CCO3,MIC,Staphylococcus aureus [10],0.06 mg/L
same,MIC,Acinetobacter baumannii [2],> 32 mg/L
same,MIC,Escherichia coli,> 32 mg/L
CN1CCN(CCCN2c3ccccc3Sc3ccc(C(F)(F)F)cc32)CC1 [TRIFLUOPERAZINE],MIC,Acinetobacter baumannii [5],100 mg/L
same,MIC,Acinetobacter baumannii [6],100 mg/L
same,MBEC,Acinetobacter baumannii [7],0.3 g/L
CN(C)c1cc(NC(=O)CNC(C)(C)C)c(O)c2c1C[C@H]1C[C@H]3[C@H](N(C)C)C(O)=C(C(N)=O)C(=O)[C@@]3(O)C(O)=C1C2=O [TIGECYCLINE],MIC,Acinetobacter baumannii [2],0.5 mg/L
same,IC50,Acinetobacter baumannii [3],0.15 µM
O=C(O)c1ccc(-c2nn(-c3ccc(C(=O)O)cc3)cc2/C=N/Nc2ccc(Cl)cc2)cc1,MIC,Acinetobacter baumannii [2],0.79 mg/L
O=C1NC2(CCC3(CC2)OCCO3)NN1c1ccc(Cl)cc1,IC50,Acinetobacter baumannii [4],10.8 µM
O=[N+]([O-])c1ccc(O)c(/C=N/Nc2ccccn2)c1,MIC,Acinetobacter baumannii [2],25 mg/L
O=C(O)c1ccc(-c2nn(-c3ccc(C(=O)O)cc3)cc2/C=N/Nc2cccc(F)c2)cc1,MIC,Acinetobacter baumannii [2],1.56 mg/L
Cc1c(N2C[C@@H](N)[C@@H](C)C2)c(F)cn2c(=O)c(C(=O)O)cc(C3CC3)c12,MIC,Acinetobacter baumannii [8],0.09 mg/L
Cc1c(Cl)sn(-c2ccc(Cl)cc2)c1=O,MIC,Acinetobacter baumannii [11],0.25 mg/L
Cc1c(N2C[C@H](N)C3(CC3)C2)c(F)cn2c(=O)c(C(=O)O)cc(C3CC3)c12,MIC,Acinetobacter baumannii [8],0.19 mg/L
Oc1cccc(/C=N/Nc2ccccn2)c1O,MIC,Acinetobacter baumannii [2],25 mg/L
O=C(O)c1ccc(-n2cc(/C=N/Nc3ccc(F)cc3)c(-c3ccccc3)n2)cc1,MIC,Acinetobacter baumannii [2],8 mg/L
O=c1[nH]cc(F)c(=O)[nH]1 [FLUOROURACIL],IC50,Acinetobacter baumannii [3],1.8 µM
Cc1c(N2C[C@H](C)N[C@@H](C)C2)c(F)cn2c(=O)c(C(=O)O)cc(C3CC3)c12,MIC,Acinetobacter baumannii [12],0.31 µM
CC(C)(C)n1cc(C(=O)O)c(=O)c2cc(F)c(Cl)nc21,IC50,Acinetobacter baumannii [4],< 2 µM
COCCCNc1cc2nc(NC(=O)c3[nH]c(C)c(Cl)c3Cl)sc2cc1C(=O)O,MIC,Acinetobacter baumannii [2],4 mg/L
H-RWKIFKKIPKFLHSAKKW-NH2,MIC,Acinetobacter baumannii [13],4 mg/L
O=C(O)c1ccc(-n2cc(/C=N/Nc3ccccc3)c(-c3ccccc3)n2)cc1,inhibition zone (IZ),Acinetobacter baumannii [14],28 mm
NCC[C@H](O)C(=O)N[C@@H]1C[C@H](N)[C@@H](O[C@H]2O[C@H](CN)[C@@H](O)[C@H](O)[C@H]2O)[C@H](O)[C@H]1O[C@H]1O[C@H](CO)[C@@H](O)[C@H](N)[C@H]1O [AMIKACIN],Activity,Acinetobacter baumannii [15],46.2%
Cc1cc(-n2sc(Cl)c(C)c2=O)ccc1Cl,MIC,Acinetobacter baumannii [11],2 mg/L
CNCC1=CCCN(c2c(F)cn3c(=O)c(C(=O)O)cc(C4CC4)c3c2C)C1,MIC,Acinetobacter baumannii [12],0.16 µM
CNc1nc(NCc2ccccc2)nc2ccc(C)cc12,MIC,Acinetobacter baumannii [16],1 µM
Cn1cnc2c3c(Cl)c4ccccc4nc3ccc21,MBC,Staphylococcus aureus [17],2 mg/L
